Measurements: ChEMBL document CHEMBL1121958, “A consideration for structure-taste correlations of perillartines using pattern-recognition techniques” (J Med Chem, 1982)

Test: Partition coefficient (logP)
Format: physicochemical
Conditions: octanol/water

Structure (SMILES)	logP
O/N=C/C1=CCCOC1	-0.72
COCC1CC=C(/C=N/O)CC1 (configuration not stated)	1.1
O/N=C/C1=CCOCC1	-0.72
COC(C)C1CC=C(/C=N/O)CC1 (configuration not stated)	1.4
C=C(C)C1CC=C(/C=N/O)CC1 (configuration not stated)	2.58
COCC(C)(O)C1CC=C(/C=N/O)CC1 (configuration not stated)	-0.1
COC(C)(CO)C1CC=C(/C=N/O)CC1 (configuration not stated)	-0.1
COC(C)C1=CC=C(/C=N/O)CC1 (configuration not stated)	1.1
COC(C)C1=CCC(/C=N/O)=CC1 (configuration not stated)	1.1
COCC1=CCC(/C=N/O)=CC1	0.8
O/N=C/C1=CCSCC1	0.34
COCC(C)(OC)C1CC=C(/C=N/O)CC1 (configuration not stated)	0.72
O/N=C/C1=CC2C=CC1CC2 (configuration not stated)	1.9
CC1=CC=C(/C=N/O)CC1	0.78
CC(O)(CO)C1CC=C(/C=N/O)CC1 (configuration not stated)	-0.92
O/N=C/C1=CC=CCC1	1.48
C=CC1CC=C(/C=N/O)CC1 (configuration not stated)	2.28
COC(C)C1CCC=C(/C=N/O)C1 (configuration not stated)	1.4
C/C=C(C)/C=N/O	0.87
O/N=C/C1=CCCCC1	1.48
COC(C)C1=CCC=C(/C=N/O)C1 (configuration not stated)	1.1
COCC1CCC=C(/C=N/O)C1 (configuration not stated)	0.8
